Laboratory results as given in the supplement of paper PMC10307832.

Tests used:
Test in all cases: relative viability (nuclei count vs DMSO), 5 days (fraction); higher = more cells survive
[1] = compound: CC1=CC(=CC=C1)NC2=NC(=CS2)C3=CC=NC=C3 + Nc1ncn([C@H]2C[C@H](O)[C@@H](CO)O2)c(=O)n1 [Decitabine] (partner 2 µM)
Outline: (§1)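 A single step with final 0.05% Triton X-100, 1% formaldehyde and 1 ug/ml Hoechst fixed the cells and stained nuclei 5 days after treatment. Lung cancer cell lines in 1536-well plates had been treated by pin tool the day after seeding with one drug alone or a fixed anchor-drug dose plus five library-drug doses (not always all listed) in √10 steps, and nuclei were counted on 4× images. Relative viability is the ratio of nuclei in treated wells to nuclei in vehicle wells, taken as the median of duplicate plates.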

[2] = compound: CC1=CC(=CC=C1)NC2=NC(=CS2)C3=CC=NC=C3 + N=C(N)NC(=N)NCCc1ccccc1 [Phenformin] (partner 250 µM)
Outline: as §1

[3] = compound: CC1=CC(=CC=C1)NC2=NC(=CS2)C3=CC=NC=C3 + CC(=O)Nc1cccc(-n2c(=O)n(C3CC3)c(=O)c3c(Nc4ccc(I)cc4F)n(C)c(=O)c(C)c32)c1 [Trametinib] (partner 0.02 µM)
Outline: as §1

[4] = compound: Cc1ccc(NC(=O)c2ccc(CN3CCN(C)CC3)cc2)cc1Nc1nc(-c2cccnc2)cs1 [Masitinib] + CC1(C)CCC(c2ccc(Cl)cc2)=C(CN2CCN(c3ccc(C(=O)NS(=O)(=O)c4ccc(N[C@H](CCN5CCOCC5)CSc5ccccc5)c(S(=O)(=O)C(F)(F)F)c4)cc3)CC2)C1 [Navitoclax] (partner 0.5 µM)
Outline: as §1

Cell Line	relative viability ([1]; first compound 0.08 µM)	relative viability ([1]; first compound 0.253 µM)	relative viability ([1]; first compound 0.8 µM)	relative viability ([1]; first compound 2.53 µM)	relative viability ([1]; first compound 8 µM)	relative viability ([2]; first compound 0.08 µM)	relative viability ([2]; first compound 0.253 µM)	relative viability ([2]; first compound 0.8 µM)	relative viability ([2]; first compound 2.53 µM)	relative viability ([2]; first compound 8 µM)	relative viability ([3]; first compound 0.08 µM)	relative viability ([3]; first compound 0.253 µM)	relative viability ([3]; first compound 0.8 µM)	relative viability ([3]; first compound 2.53 µM)	relative viability ([3]; first compound 8 µM)	relative viability ([4]; first compound 0.01 µM)	relative viability ([4]; first compound 0.03162 µM)	relative viability ([4]; first compound 0.1 µM)	relative viability ([4]; first compound 0.3162 µM)	relative viability ([4]; first compound 1 µM)
NCI-H522	0.702	0.63	0.708	0.801	0.677	0.682	0.687	0.654	0.613	0.655	0.79	0.66	0.832	0.789	0.878	–	–	–	–	–
HCC-15	0.621	0.662	0.58	0.582	0.625	0.424	0.462	0.483	0.501	0.438	0.369	0.383	0.373	0.348	0.343	0.667	0.606	0.819	0.647	0.725
A-427	0.558	0.544	0.547	0.548	0.546	0.355	0.28	0.355	0.326	0.244	0.572	0.716	0.714	0.719	0.624	–	0.99	–	0.927	0.933
NCI-H23	0.327	0.274	0.32	0.299	0.32	0.787	0.711	0.717	0.82	0.779	0.371	0.199	0.424	0.388	0.419	0.879	0.789	0.966	0.706	0.872
NCI-H1755	0.654	0.702	0.701	0.617	0.604	0.505	0.524	0.566	0.598	0.546	0.734	0.735	0.612	0.642	0.522	–	0.975	1.1	0.931	0.894
LU99A	0.889	0.939	0.787	0.709	0.879	0.762	0.765	0.863	0.884	0.821	0.521	0.575	0.509	0.525	0.477	0.755	0.758	0.887	0.97	0.791
PC-3 [JPC-3]	0.783	–	0.865	0.72	0.756	0.426	0.451	0.461	0.486	0.498	0.602	–	0.658	0.606	0.572	0.768	0.682	0.806	0.659	0.787
NCI-H1975	0.326	0.336	0.381	0.356	0.245	0.359	0.362	0.383	0.326	0.296	0.294	0.274	0.335	0.263	0.193	1.15	1.09	1.14	0.92	1.01
NCI-H1703	–	–	–	–	–	–	–	–	–	–	–	–	–	–	–	0.748	0.898	0.464	0.29	0.243
HCC-366	0.329	0.357	0.308	0.309	0.263	0.635	0.601	0.576	0.607	0.505	0.357	0.273	0.183	0.214	0.168	1.04	1.03	1.2	1.09	1
NCI-H1793	0.513	0.481	0.489	0.472	0.238	0.255	0.293	0.387	0.408	0.316	0.451	0.353	0.348	0.345	0.394	0.456	0.446	0.401	0.41	0.404
NCI-H727	0.88	–	0.864	–	0.836	–	0.376	0.586	0.477	0.4	0.422	–	0.439	–	0.405	0.424	0.431	0.385	0.347	0.434
RERF-LC-KJ	0.675	0.64	0.62	0.522	0.387	0.449	0.403	0.373	0.384	0.363	0.953	0.734	0.735	0.703	0.645	0.986	–	1.07	0.873	0.541
NCI-H1623	–	–	–	–	–	0.577	0.585	0.564	0.513	0.565	–	–	–	–	–	–	–	–	–	–
Calu-6	–	–	–	–	–	–	–	–	–	–	–	–	–	–	–	0.836	0.872	0.89	0.821	0.904
LC-2-ad	0.754	0.776	0.793	0.799	0.69	0.556	–	0.568	0.585	0.523	0.862	0.881	0.826	0.839	0.8	0.486	0.412	0.667	0.485	0.408
